Test results: patent US20260224584A1 (priority 2023, published 2026)
Structures can show the parent of a compound that is named as a salt.

What follows are compounds tested on Human WB (90%) CD69 (assay: Human WB (90%) CD69). Details: read-out: Human WB (90%) CD69 IC50 (nM); human whole blood (90%), CD69 readout.
Assay type: cell-based

Row | Compound | IC50 [nM]
1 | CC(C)N1CCN(c2ccc(-c3cc(NCCN4CCOCC4)c4nc(C5CCN(S(C)(=O)=O)CC5)n(C)c4c3)cc2)CC1 [Example 30, 6-(4-(4-isopropylpiperazin-1-yl)phenyl)-1-methyl-2-(1-(methylsulfonyl)piperidin-4-yl)-N-(2-morpholinoethyl)-1H-benzo[d]imidazol-4-amine] | 374
2 | COc1cccc(CCNc2cc(-c3ccc(N4CCN(C(C)C)CC4)cc3)cc3c2nc(C)n3C)c1OC [Example 8, N-(2,3-dimethoxyphenethyl)-6-(4-(4-isopropylpiperazin-1-yl)phenyl)-1,2-dimethyl-1H-benzo[d]imidazol-4-amine, TFA] | 1560
3 | CC(C)N1CCN(c2ccc(-c3cc(NCCN4CCOCC4)c4nc(C5CCS(=O)(=O)CC5)n(C)c4c3)cc2)CC1 [Example 42, 4-(6-(4-(4-isopropylpiperazin-1-yl)phenyl)-1-methyl-4-((2-morpholinoethyl)amino)-1H-benzo[d]imidazol-2-yl)tetrahydro-2H-thiopyran 1,1-dioxide] | 925
4 | Cc1cc(C)nc(Nc2cc(-c3ccc(N4CCN(C(C)C)CC4)cc3)cc3c2nc(-c2cnoc2)n3C)c1 [Example 49, N-(4,6-dimethylpyridin-2-yl)-6-(4-(4-isopropylpiperazin-1-yl)phenyl)-2-(isoxazol-4-yl)-1-methyl-1H-benzo[d]imidazol-4-amine, TFA] | 1090
5 | CC(C)N1CCN(c2ccc(-c3cc(NCc4ccc(S(C)(=O)=O)cc4)c4nc(-c5ccc(S(C)(=O)=O)cc5)n(C)c4c3)cc2)CC1 [Example 56, 6-(4-(4-isopropylpiperazin-1-yl)phenyl)-1-methyl-N-(4-(methylsulfonyl)benzyl)-2-(4-(methylsulfonyl)phenyl)-1H-benzo[d]imidazol-4-amine, TFA] | 1640
6 | Cc1cc(C)nc(Nc2cc(-c3ccc(N4CCN(C(C)C)CC4)cc3)cc3c2nc(-c2ccco2)n3C)c1 [Example 52, N-(4,6-dimethylpyridin-2-yl)-2-(furan-2-yl)-6-(4-(4-isopropylpiperazin-1-yl)phenyl)-1-methyl-1H-benzo[d]imidazol-4-amine, TFA] | 62
7 | COc1ccc(-c2nc3c(NCCN4CCOCC4)cc(-c4ccc(N5CCN(C(C)C)CC5)cc4)cc3n2C)cc1OC [Example 5, 2-(3,4-dimethoxyphenyl)-6-(4-(4-isopropylpiperazin-1-yl)phenyl)-1-methyl-N-(2-morpholinoethyl)-1H-benzo[d]imidazol-4-amine] | 94
8 | Cc1ccc(Nc2cc(-c3ccc(N4CCN(C(C)C)CC4)cc3)cc3c2nc(C)n3C)cn1 [Example 15, 6-(4-(4-isopropylpiperazin-1-yl)phenyl)-1,2-dimethyl-N-(6-methylpyridin-3-yl)-1H-benzo[d]imidazol-4-amine] | 526
9 | Cc1cc(C)nc(Nc2cc(-c3ccc(N4CCN(C(C)C)CC4)cc3)cc3c2nc(C2CC2)n3C)c1 [Example 33, 2-cyclopropyl-N-(4,6-dimethylpyridin-2-yl)-6-(4-(4-isopropylpiperazin-1-yl)phenyl)-1-methyl-1H-benzo[d]imidazol-4-amine, TFA] | 245
